Test results published in patent publication US6066672A, “Amino compounds and angiotensin IV receptor agonists” (Taisho Pharmaceutical Co., Ltd., priority 1996, dated 2000).
Structures can show the parent of a compound that is named as a salt.

Biological target: T1, angiotensin IV receptor (Cavia porcellus, UniProt H0VNM7)
T1 construct: The Hartley guinea pig hippocampus was homogenized in a 50 mM Tris hydrochloride buffer solution; from tissue; host or cells: Hartley guinea pig hippocampus, crude membrane (48,000 x g precipitate)
T1 sequence (H0VNM7 1-1025): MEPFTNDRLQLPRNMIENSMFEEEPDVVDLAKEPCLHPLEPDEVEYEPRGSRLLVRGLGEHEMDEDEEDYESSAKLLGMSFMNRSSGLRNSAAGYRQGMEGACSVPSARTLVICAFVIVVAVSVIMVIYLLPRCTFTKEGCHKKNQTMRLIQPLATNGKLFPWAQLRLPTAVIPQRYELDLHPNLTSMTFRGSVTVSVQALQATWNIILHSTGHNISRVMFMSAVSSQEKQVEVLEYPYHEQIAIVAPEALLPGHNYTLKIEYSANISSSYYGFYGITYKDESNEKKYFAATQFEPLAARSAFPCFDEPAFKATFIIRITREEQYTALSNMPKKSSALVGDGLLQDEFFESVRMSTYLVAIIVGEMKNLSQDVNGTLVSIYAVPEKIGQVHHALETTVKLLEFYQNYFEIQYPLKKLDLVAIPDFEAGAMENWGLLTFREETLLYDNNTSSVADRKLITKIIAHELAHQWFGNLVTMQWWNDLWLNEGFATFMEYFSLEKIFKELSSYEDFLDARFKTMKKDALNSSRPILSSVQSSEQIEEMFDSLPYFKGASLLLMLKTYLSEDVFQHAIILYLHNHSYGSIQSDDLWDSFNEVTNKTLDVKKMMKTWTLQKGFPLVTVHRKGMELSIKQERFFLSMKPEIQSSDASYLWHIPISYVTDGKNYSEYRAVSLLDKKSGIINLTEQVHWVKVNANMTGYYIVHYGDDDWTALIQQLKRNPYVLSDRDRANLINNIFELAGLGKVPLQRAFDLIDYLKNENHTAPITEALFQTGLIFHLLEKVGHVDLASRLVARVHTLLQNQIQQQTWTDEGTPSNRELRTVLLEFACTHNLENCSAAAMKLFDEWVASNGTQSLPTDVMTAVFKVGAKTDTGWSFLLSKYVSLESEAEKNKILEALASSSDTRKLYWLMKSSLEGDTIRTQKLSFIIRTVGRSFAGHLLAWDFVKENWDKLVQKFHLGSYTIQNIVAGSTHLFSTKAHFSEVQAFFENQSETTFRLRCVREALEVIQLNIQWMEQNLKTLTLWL
Assay: binding capability to angiotensin IV receptor, inhibition of 125I-angiotensin IV binding to guinea pig hippocampus membrane
Conditions: 0.2 nM 125I-angiotensin IV, Hartley guinea pig hippocampus crude membrane, 37° C., 90 minutes, pH 7.4
Method: The binding capability to angiotensin IV receptor was measured by using Hartley guinea pig hippocampus referring to the method described by Miller-Wing et al., J. Pharmacol. Exp. Ther., vol. 266, pp.1718 (1993). The Hartley guinea pig hippocampus was homogenized in a 50 mM Tris hydrochloride buffer solution (pH 7.4) containing 1 mM ethylenediamine-N,N,N',N'-tetraacetic acid (EDTA) and 100 μM phenylmethanesulfonyl fluoride (PMSF). After centrifugation at 900× g, the resulting supernatant was further centrifuged at 48,000× g. The precipitate was washed once with the same buffer solution and suspended in 50 mM Tris hydrochloride buffer solution (pH 7.4) containing 150 mM sodium chloride, 1 mM EDTA, 100 μM PMSF and 0.1% bovine serum albumin (BSA) to give a protein concentration of […] as a crude membrane specimen. […] The radioactivity on the filter paper was measured by using a gamma-counter. The non-specific bond was measured in the presence of 1 μM angiotensin IV, and the specific bond was calculated by subtracting the non-specific bond from the total bond.

IC50 | SMILES
38.5 nM | CCCC[C@H](N)CN[C@@H](Cc1ccc(O)cc1)C(=O)N[C@H](CC)CC(C)C [Example 26, N'-[(S)-2-aminohexyl]-N-[(R)-1-ethyl-3-methylbutyl]-L-tyrosinamide dihydrochloride]
328 nM | CCCC[C@H](N)C(=O)N[C@H](CN[C@H](/C=C/c1ccccc1)CC(C)C)Cc1ccc(O)cc1 [Example 27, N-[(S)-1-[(4-hydroxyphenyl)methyl]-2-[(S)-(E)-[1-(2-methylpropyl)-3-phenyl-2-propenyl]amino]ethyl]-L-norleucinamide dihydrochloride]
299 nM | CCCC[C@H](N)C(=O)N[C@H](CN[C@H](CCc1ccccc1)CC(C)C)Cc1ccc(O)cc1 [Example 28, N-[1-[(S)-[(4-hydroxyphenyl)methyl]]-2-[[(R)-3-methyl-1-(2-phenylethyl)butyl]amino]ethyl]-L-norleucinamide dihydrochloride]
24.2 nM | CCCC[C@H](N)CN[C@H](CN[C@H](/C=C/c1ccccc1)CC(C)C)Cc1ccc(O)cc1 [Example 29, (S)-(E)-N-[(S)-2-[[(S)-2-aminohexyl]amino]-3-(4-hydroxyphenyl)propyl]-5-methyl-1-phenyl-1-hexen-3-amine trihydrochloride]
171 nM | CCCC[C@H](N)CN[C@H](CN[C@H](CCc1ccccc1)CC(C)C)Cc1ccc(O)cc1 [Example 30, (R)-N-[(S)-2-[[(S)-2-aminohexyl]amino]-3-(4-hydroxyphenyl)propyl]-5-methyl-1-phenylhexan-3-amine trihydrochloride]
32 nM | CCCC[C@H](N)CN[C@H](CN[C@H](C(=O)OC)[C@@H](C)CC)Cc1ccc(O)cc1 [Example 31, N-[(S)-2-[[(S)-2-aminohexyl]amino]-3-(4-hydroxyphenyl)propyl]-L-isoleucinemethyl ester trihydrochloride]
